# Assay results published in the Kinase Knowledgebase extract (Sharma et al. 2016).
# Target: EGFR (human) (UniProt P00533)
# Conditions: a431
# EGFR (human), sequence (P00533 whole entry, looked up): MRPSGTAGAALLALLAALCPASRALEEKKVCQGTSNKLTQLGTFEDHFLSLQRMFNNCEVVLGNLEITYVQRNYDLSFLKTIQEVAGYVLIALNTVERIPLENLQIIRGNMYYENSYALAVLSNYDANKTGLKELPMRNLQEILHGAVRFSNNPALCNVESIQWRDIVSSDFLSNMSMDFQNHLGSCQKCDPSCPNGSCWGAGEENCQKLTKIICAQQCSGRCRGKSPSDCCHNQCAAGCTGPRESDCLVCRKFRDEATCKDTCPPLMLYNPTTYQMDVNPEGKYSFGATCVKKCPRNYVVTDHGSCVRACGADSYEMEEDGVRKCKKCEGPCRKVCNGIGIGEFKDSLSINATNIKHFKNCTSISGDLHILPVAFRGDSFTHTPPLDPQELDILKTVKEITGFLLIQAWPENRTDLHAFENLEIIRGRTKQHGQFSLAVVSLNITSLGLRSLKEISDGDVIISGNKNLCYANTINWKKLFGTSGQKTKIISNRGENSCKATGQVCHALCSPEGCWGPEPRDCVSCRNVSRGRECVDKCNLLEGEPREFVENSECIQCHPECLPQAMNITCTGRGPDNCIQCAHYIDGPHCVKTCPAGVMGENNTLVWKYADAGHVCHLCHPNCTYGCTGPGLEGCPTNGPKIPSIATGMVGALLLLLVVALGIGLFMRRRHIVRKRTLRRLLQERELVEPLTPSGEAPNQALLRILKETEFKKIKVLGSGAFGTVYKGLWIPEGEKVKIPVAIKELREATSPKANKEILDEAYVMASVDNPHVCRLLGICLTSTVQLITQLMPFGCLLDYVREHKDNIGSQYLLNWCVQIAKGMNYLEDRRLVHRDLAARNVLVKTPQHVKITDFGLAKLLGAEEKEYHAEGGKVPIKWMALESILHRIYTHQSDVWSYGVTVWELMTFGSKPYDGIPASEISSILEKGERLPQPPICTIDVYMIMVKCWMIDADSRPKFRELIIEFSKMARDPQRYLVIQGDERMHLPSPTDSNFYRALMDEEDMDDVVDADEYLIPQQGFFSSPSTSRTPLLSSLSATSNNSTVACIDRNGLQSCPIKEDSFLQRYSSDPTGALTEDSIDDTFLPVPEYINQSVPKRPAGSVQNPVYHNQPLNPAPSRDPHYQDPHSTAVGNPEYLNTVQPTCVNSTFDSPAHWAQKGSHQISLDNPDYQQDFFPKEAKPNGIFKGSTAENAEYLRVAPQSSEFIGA
row,Structure (SMILES),IC50
1,COc1cc2ncc(C#N)c(Nc3ccc(N(Cc4cccnc4)C(C)=O)c(Cl)c3)c2cc1NC(=O)/C=C/CN(C)C,0.646 µg/mL
2,COc1cc2ncc(C#N)c(Nc3ccc(Sc4nc5ccccc5c(=O)[nH]4)c(Cl)c3)c2cc1NC(=O)/C=C/CN(C)C,0.34 µg/mL
3,COc1cc2ncc(C#N)c(Nc3ccc(Sc4nc(-c5ccccc5)cs4)c(Cl)c3)c2cc1NC(=O)/C=C/CN(C)C,0.162 µg/mL
4,COc1cc2ncc(C#N)c(Nc3ccc(Sc4nccs4)c(Cl)c3)c2cc1NC(=O)/C=C/CN(C)C,0.017 µg/mL
5,COc1ccc2c(N(c3ccc(N(Cc4cccnc4)C(C)=O)c(Cl)c3)c3ccc(Nc4c(C#N)cnc5cc(OC)c(NC(C)=O)cc45)cc3Cl)c(C#N)cnc2c1,3.68 µg/mL
6,COc1cc2ncc(C#N)c(Nc3ccc(NCc4cccnc4)c(Cl)c3)c2cc1[N+](=O)[O-],1.6 µg/mL
7,COc1cc2nc(Sc3ccc(Nc4c(C#N)cnc5cc(OC)c([N+](=O)[O-])cc45)cc3Cl)[nH]c(=O)c2cc1O,2.28 µg/mL
8,COc1cc2ncc(C#N)c(Nc3ccc(-n4ccnc4)c(Cl)c3)c2cc1[N+](=O)[O-],1.79 µg/mL
9,COc1cc2ncc(C#N)c(Nc3ccc(Sc4nc5ccccc5c(=O)[nH]4)c(Cl)c3)c2cc1N,1.22 µg/mL
10,C=CC(=O)Nc1ccc2ncc(C#N)c(Nc3ccc(Sc4nccn4C)c(Cl)c3)c2c1,0.62 µg/mL
11,CCOc1cc2ncc(C#N)c(Nc3cc(Cl)c(Nc4nncs4)c(C(F)(F)F)c3)c2cc1NC(=O)/C=C/CN(C)C,0.728 µg/mL
12,CCOc1cc2ncc(C#N)c(Nc3cc(Cl)c(Nc4nncs4)c(C(F)(F)F)c3)c2cc1[N+](=O)[O-],1.79 µg/mL
13,CCOc1cc2ncc(C#N)c(Nc3ccc(Sc4nc(C)cc(C)n4)c(Cl)c3)c2cc1NC(=O)/C=C/CN(C)C,0.24 µg/mL
14,COc1cc2ncc(C#N)c(Nc3ccc(-n4ccnc4)c(Cl)c3)c2cc1NC(=O)/C=C/CN(C)C,0.51 µg/mL
15,CCOc1cc2ncc(C#N)c(Nc3ccc4cn[nH]c4c3)c2cc1OC,0.0368 µg/mL
16,CCOc1cc2ncc(C#N)c(Nc3ccc(Sc4nc(-c5ccccc5)cs4)c(C(F)(F)F)c3)c2cc1[N+](=O)[O-],0.76 µg/mL
17,COCCN(C)C/C=C/C(=O)Nc1cc2c(Nc3ccc(Sc4nccs4)c(Cl)c3)c(C#N)cnc2cc1OC,0.03 µg/mL
18,COc1cc2ncc(C#N)c(Nc3ccc(N(c4ccc(N(Cc5cccnc5)C(C)=O)c(Cl)c4)c4c(OC)cnc5ccccc45)c(Cl)c3)c2cc1N,> 5 µg/mL
19,CCOc1cc2ncc(C#N)c(Nc3ccc(Sc4nc(-c5ccccc5)cs4)c(C(F)(F)F)c3)c2cc1N,> 5 µg/mL
20,COc1cc2ncc(C#N)c(Nc3ccc(Sc4nccs4)c(Cl)c3)c2cc1[N+](=O)[O-],0.148 µg/mL

# Next, values leading:
row,IC50,Structure (SMILES)
1,> 5 µg/mL,CCOc1cc2ncc(C#N)c(Nc3ccc(Sc4nc(C)cc(C)n4)c(Cl)c3)c2cc1[N+](=O)[O-]
2,0.786 µg/mL,CCOc1cc2c(Nc3ccc4cn[nH]c4c3)c(C#N)cnc2cc1OC
3,> 5 µg/mL,CCOc1cc2ncc(C#N)c(Nc3ccc(Cn4ccnc4)c(Cl)c3)c2cc1[N+](=O)[O-]
4,1.96 µg/mL,COCCOc1cc2ncc(C#N)c(Nc3ccc4cn[nH]c4c3)c2cc1OCCOC
5,> 5 µg/mL,COc1cc2ncc(C#N)c(Nc3ccc4cn[nH]c4c3)c2cc1OCCCN1CCOCC1
6,1.53 µg/mL,CCOc1cc2ncc(C#N)c(Nc3ccc(Sc4nccc(C)n4)c(Cl)c3)c2cc1N
7,1.2 µg/mL,CCOc1cc2ncc(C#N)c(Nc3ccc(Sc4nccc(C)n4)c(Cl)c3)c2cc1[N+](=O)[O-]
8,0.342 µg/mL,CCOc1cc2ncc(C#N)c(Nc3ccc4c(c3)CCC4)c2cc1OCC
9,2.88 µg/mL,COc1cc2ncc(C#N)c(Nc3ccc(Sc4nccn4C)c(Cl)c3)c2cc1[N+](=O)[O-]
10,3.04 µg/mL,COc1cc2ncc(C#N)c(Nc3ccc(Sc4nccn4C)c(Cl)c3)c2cc1N
11,0.257 µg/mL,CCOc1cc2ncc(C#N)c(Nc3ccc4c(c3)S(=O)(=O)C=C4)c2cc1OCC
12,> 5 µg/mL,CCOc1cc2ncc(C#N)c(Nc3ccc(Oc4ccncc4)c(Cl)c3)c2cc1N
13,0.775 µg/mL,COc1cc2c(Nc3ccc(Sc4nccn4C)c(Cl)c3)c(C#N)cnc2cc1OCCCN1CCOCC1
14,0.0181 µg/mL,CCOc1cc2ncc(C#N)c(Nc3ccc4c(c3)CCC4=O)c2cc1OCC
15,> 5 µg/mL,CCOc1cc2ncc(C#N)c(Nc3ccc(Nc4nnc(C(F)(F)F)s4)c(Cl)c3)c2cc1N
16,0.27 µg/mL,CCOc1cc2ncc(C#N)c(Nc3ccc4c(c3)OCCO4)c2cc1OCC
17,0.663 µg/mL,COc1cc2ncc(C#N)c(Nc3ccc(Sc4nccs4)c(Cl)c3)c2cc1N
18,0.123 µg/mL,CCOc1cc2ncc(C#N)c(Nc3ccc4cc[nH]c4c3)c2cc1OCC
19,0.76 µg/mL,CCOc1cc2ncc(C#N)c(Nc3ccc(Sc4nc(C)cc(C)n4)c(Cl)c3)c2cc1N
20,> 5 µg/mL,CCOc1cc2ncc(C#N)c(Nc3ccc(Oc4ccncc4)c(Cl)c3)c2cc1[N+](=O)[O-]
21,> 5 µg/mL,CCOc1cc2ncc(C#N)c(Nc3ccc(Cn4ccnc4)c(Cl)c3)c2cc1N
22,0.062 µg/mL,CCOc1cc2ncc(C#N)c(Nc3ccc(OCc4ccccc4)c(Cl)c3)c2cc1NC(=O)/C=C/CN(C)C
23,0.95 µg/mL,CCOc1cc2ncc(C#N)c(Nc3ccc(Cn4ccnc4)c(Cl)c3)c2cc1NC(=O)/C=C/CN(C)C
24,1.83 µg/mL,COc1cc2c(Nc3ccc(Sc4nccn4C)c(Cl)c3)c(C#N)cnc2cc1OCCCn1ccnn1

# Target: EGFR (UniProt P00533)
# Sequence (P00533 whole entry, looked up): as above
# Conditions: not given
row,Structure (SMILES),IC50
1,CCOc1cc2ncc(C#N)c(Nc3ccc(OCc4cccc(F)c4)c(Cl)c3)c2cc1NC(=O)/C=C/CN(C)C,0.019 µg/mL
2,CCOc1cc2ncc(C#N)c(Nc3ccc(OCc4ccccc4)c(Cl)c3)c2cc1NC(=O)/C=C/CN(C)C,0.028 µg/mL
